From article PMC8546428, “Convergent olfactory trace amine-associated receptors detect biogenic polyamines with distinct motifs via a conserved binding site” (The Journal of Biological Chemistry, 2021)
Residue numbers refer to the chain shown, from its start. pEC50: −log10 of the molar value.

Columns and labels:
mTAAR9 E7.36D = molecular target: T1, mTAAR9 E7.36D (Mus musculus, UniProt Q5QD04, E294D); assay: CRE-luciferase reporter assay, mTAAR9 mutant in Hana3A; assay type: cell-based; conditions: read-out: EC50 (mean ± S.D., n = 3)
T1 construct: expressed in transfected cells; host or cells: Hana3A (HEK293-derived)
T1 sequence (Q5QD04 1-348 E294D): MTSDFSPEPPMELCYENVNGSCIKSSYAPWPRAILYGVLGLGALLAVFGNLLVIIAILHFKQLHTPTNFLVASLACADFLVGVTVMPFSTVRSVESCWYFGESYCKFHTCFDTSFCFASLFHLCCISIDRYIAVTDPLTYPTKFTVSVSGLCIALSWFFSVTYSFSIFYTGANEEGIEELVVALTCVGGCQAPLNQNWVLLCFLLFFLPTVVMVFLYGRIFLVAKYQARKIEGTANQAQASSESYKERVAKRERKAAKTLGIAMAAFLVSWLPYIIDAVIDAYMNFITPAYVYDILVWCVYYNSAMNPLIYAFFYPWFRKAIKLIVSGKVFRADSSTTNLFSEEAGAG

WT mTAAR9 = molecular target: T2, WT mTAAR9 (Mus musculus, UniProt Q5QD04); assay: CRE-luciferase reporter assay, wild-type mTAAR9 in Hana3A; assay type: cell-based; conditions: mouse TAAR9, ligand 1 mM, Fig. 1B
T2 construct: Rho-tag (first 20 amino acids of bovine rhodopsin) (N); expressed in transfected cells; host or cells: Hana3A (HEK293-derived)
T2 sequence (Q5QD04 1-348): T1 sequence (Q5QD04 1-348 E294D) with D294E
Protocol: (§1) Mammalian TAAR9 plasmids were transfected into Hana3A cells along with a cAMP-dependent luciferase reporter plasmid (CRE-Luc). Transfected cells were incubated with tested ligands, and luciferase activity was quantified with a […] substrate as a reporter for Golf-mediated TAAR activation. Luciferase activity was indicated by the luminescence value and normalized as a fold-increase over the response to the vehicle stimuli (mean ± S.D., n = 3). […] B, Hana3A cells expressing mouse, rat, human, cat, hamster, and rabbit TAAR9 were incubated with either vehicle or tested ligands (1 mM) and assayed for reporter activity. C, concentration-dependent luciferase activity in Hana3A cells expressing mouse, rat, and cat TAAR9 receptors stimulated with cadaverine, spermidine, and spermine.
(§2) The firefly luciferase and renilla luciferase activity was measured with a BioTek microplate reader following manufacturer’s instructions.

Cat TAAR9 = conditions: cat TAAR9, ligand 1 mM, Fig. 1B
Protocol: (§3) We examined the response of TAAR9s from rat, human, hamster, and rabbit to the stimulation of 1 mM amines using a well-established cAMP response element (CRE)-driven luciferase reporter assay based on Golf-mediated cAMP signal transduction ([5], [24]). In addition to the four mTAAR9 ligands, we included putrescine, which is also a polyamine and precursor of spermine/spermidine biosynthesis.
as §1, §2

hamster TAAR9 = hamster TAAR9 (Mesocricetus auratus, UniProt A0A1U7R5X1); conditions: hamster TAAR9, ligand 1 mM, Fig. 1B
Protocol: as §3, §1, §2

human TAAR9 = human TAAR9 (Homo sapiens, UniProt Q96RI9); conditions: human TAAR9, ligand 1 mM, Fig. 1B
Protocol: as §3, §1, §2

rabbit TAAR9 = rabbit TAAR9 (Oryctolagus cuniculus, UniProt G1SUU9); conditions: rabbit TAAR9, ligand 1 mM, Fig. 1B
Protocol: as §3, §1, §2

rabbit TAAR9, sequence (G1SUU9 1-348): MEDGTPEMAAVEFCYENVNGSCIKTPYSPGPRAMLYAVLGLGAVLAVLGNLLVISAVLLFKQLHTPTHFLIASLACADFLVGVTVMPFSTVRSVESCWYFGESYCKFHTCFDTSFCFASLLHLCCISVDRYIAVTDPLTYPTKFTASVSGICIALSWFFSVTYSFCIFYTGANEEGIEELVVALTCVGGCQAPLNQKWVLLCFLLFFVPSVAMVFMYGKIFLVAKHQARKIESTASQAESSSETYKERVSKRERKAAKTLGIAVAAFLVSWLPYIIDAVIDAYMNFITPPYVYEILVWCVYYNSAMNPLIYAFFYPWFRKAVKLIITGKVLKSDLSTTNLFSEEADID
human TAAR9, sequence (Q96RI9 whole entry): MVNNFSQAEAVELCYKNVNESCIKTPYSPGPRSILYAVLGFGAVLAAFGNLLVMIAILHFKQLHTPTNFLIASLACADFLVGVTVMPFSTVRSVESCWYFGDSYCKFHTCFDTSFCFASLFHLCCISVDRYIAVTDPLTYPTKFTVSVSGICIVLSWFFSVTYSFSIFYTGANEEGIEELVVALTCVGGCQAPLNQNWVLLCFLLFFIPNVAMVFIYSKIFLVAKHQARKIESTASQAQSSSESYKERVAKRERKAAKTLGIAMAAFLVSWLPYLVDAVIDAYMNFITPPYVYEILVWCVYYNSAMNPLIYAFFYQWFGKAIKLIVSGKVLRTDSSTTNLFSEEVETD
hamster TAAR9, sequence (A0A1U7R5X1 1-348): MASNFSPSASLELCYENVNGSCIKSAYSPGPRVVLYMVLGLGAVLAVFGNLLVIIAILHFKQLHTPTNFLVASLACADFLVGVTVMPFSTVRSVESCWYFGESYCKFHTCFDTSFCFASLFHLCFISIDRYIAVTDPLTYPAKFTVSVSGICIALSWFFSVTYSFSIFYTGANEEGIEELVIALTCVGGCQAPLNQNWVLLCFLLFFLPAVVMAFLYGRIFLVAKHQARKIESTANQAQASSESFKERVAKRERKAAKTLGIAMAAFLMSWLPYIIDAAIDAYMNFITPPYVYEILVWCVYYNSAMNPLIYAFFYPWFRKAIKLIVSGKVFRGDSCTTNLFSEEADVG

| SMILES | pEC50 (mTAAR9 E7.36D) | reporter activity (activation of TAAR9) (WT mTAAR9) | reporter activity (activation of TAAR9) (Cat TAAR9) | reporter activity (activation of TAAR9) (hamster TAAR9) | reporter activity (activation of TAAR9) (human TAAR9) | reporter activity (activation of TAAR9) (rabbit TAAR9) |
| --- | --- | --- | --- | --- | --- | --- |
| NCCCCCN [cadaverine] | < 3.00 |  |  |  |  |  |
| NCCCCN [putrescine] |  | not activated | not activated | not activated | not activated | not activated |
